Reference: the supplement of paper PMC10307832

Experiments:
Test in all cases: relative viability (nuclei count vs DMSO), 5 days (fraction); higher = more cells survive
[1] = compound: CN1CCN(c2ccc3nc(-c4c(N)c5c(F)cccc5[nH]c4=O)[nH]c3c2)CC1 [Dovitinib]
How it was run: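 Hoechst staining, done together with fixation and permeabilisation, marked nuclei for 4× imaging and MetaXpress counting. This followed 5 days without medium change after lung cancer cell lines, kept overnight at 37 °C in 1536-well plates, were pinned with five library-drug doses (not always all listed) spaced by √10 on vehicle-anchored plates. Viability is the ratio of treated-well to vehicle-well nuclei, expressed as a median across plates. Plates passed only at control CV below 25% with at least one doubling.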

[2] = compound: CN1CCN(c2ccc3nc(-c4c(N)c5c(F)cccc5[nH]c4=O)[nH]c3c2)CC1 [Dovitinib] + CC1(C)CCC(c2ccc(Cl)cc2)=C(CN2CCN(c3ccc(C(=O)NS(=O)(=O)c4ccc(N[C@H](CCN5CCOCC5)CSc5ccccc5)c(S(=O)(=O)C(F)(F)F)c4)cc3)CC2)C1 [Navitoclax] (partner 0.5 µM)
How it was run: (§1)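 The day after seeding in 1536-well plates, lung cancer cell lines were treated by pin tool with a single drug, or with a fixed anchor-drug dose together with five library-drug doses (not always all listed) in √10 steps. After 5 days, a combined fix-and-stain solution (final 0.05% Triton X-100, 1% formaldehyde, 1 ug/ml Hoechst) was added. Nuclei counted on 4× images gave relative viability as treated counts over vehicle counts, reported as the median of duplicate plates.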

[3] = compound: CN1CCN(c2ccc3nc(-c4c(N)c5c(F)cccc5[nH]c4=O)[nH]c3c2)CC1 [Dovitinib] + Cc1cc(Nc2cc(N3CCN(C)CC3)nc(Sc3ccc(NC(=O)C4CC4)cc3)n2)n[nH]1 [Tozasertib] (partner 0.1 µM)
How it was run: as §1

[4] = compound: CN1CCN(c2ccc3nc(-c4c(N)c5c(F)cccc5[nH]c4=O)[nH]c3c2)CC1 [Dovitinib] + N=C(N)NC(=N)NCCc1ccccc1 [Phenformin] (partner 250 µM)
How it was run: as §1

| Cell Line | relative viability ([1]; 0.02 µM) | relative viability ([1]; 0.06325 µM) | relative viability ([1]; 0.2 µM) | relative viability ([1]; 0.6325 µM) | relative viability ([1]; 2 µM) | relative viability ([2]; first compound 0.02 µM) | relative viability ([2]; first compound 0.06325 µM) | relative viability ([2]; first compound 0.2 µM) | relative viability ([2]; first compound 0.6325 µM) | relative viability ([2]; first compound 2 µM) | relative viability ([3]; first compound 0.02 µM) | relative viability ([3]; first compound 0.06325 µM) | relative viability ([3]; first compound 0.2 µM) | relative viability ([3]; first compound 0.6325 µM) | relative viability ([3]; first compound 2 µM) | relative viability ([4]; first compound 0.02 µM) | relative viability ([4]; first compound 0.06325 µM) | relative viability ([4]; first compound 0.2 µM) | relative viability ([4]; first compound 0.6325 µM) | relative viability ([4]; first compound 2 µM) |
| --- | --- | --- | --- | --- | --- | --- | --- | --- | --- | --- | --- | --- | --- | --- | --- | --- | --- | --- | --- | --- |
| NCI-H1437 | 0.973 | 1.03 | 0.971 | 1.04 | 1.02 | 1.01 | 1.05 | 1.05 | 1.05 | 1.07 | 0.418 | 0.392 | 0.435 | 0.392 | 0.419 | 0.297 | 0.292 | 0.595 | 0.304 | 0.346 |
| NCI-H1650 | 0.949 | 0.998 | 0.987 | 0.93 | 1.05 | 1.12 | 1.2 | 1.25 | 1.05 | 1.08 | 0.394 | 0.349 | 0.424 | 0.325 | 0.361 | 0.517 | 0.5 | 0.513 | 0.448 | 0.388 |
| NCI-H1651 | 0.986 | 0.999 | 1.03 | 1.06 | 0.963 | 1.09 | 1.04 | 1.03 | 1.02 | 1.03 | 0.61 | 0.65 | 0.691 | 0.682 | 0.733 | 0.336 | 0.352 | 0.485 | 0.347 | 0.275 |
| NCI-H1666 | 1.2 | 1.09 | 1.09 | 1.01 | 1.01 | 0.835 | 0.966 | 0.887 | 0.901 | 1.03 | 0.582 | 0.651 | 0.581 | 0.525 | 0.625 | 0.612 | 0.579 | 0.588 | 0.554 | 0.566 |
| NCI-H1734 | 0.928 | 0.974 | 0.934 | 0.963 | 0.984 | 0.876 | 0.826 | 0.849 | 0.851 | 0.822 | 0.287 | 0.279 | 0.264 | 0.223 | 0.288 | 0.418 | 0.408 | 0.38 | 0.396 | 0.372 |
| NCI-H1755 | 1.04 | 1.02 | 1.01 | 0.998 | 1.02 | 1.02 | 1 | 1.02 | 0.992 | 1.05 | 0.53 | 0.62 | 0.554 | 0.561 | 0.555 | 0.625 | 0.601 | 0.617 | 0.591 | 0.657 |
| NCI-H1793 | 1.07 | 0.977 | 1.02 | 1.09 | 1.01 | 0.407 | 0.359 | 0.456 | 0.476 | 0.373 | 0.32 | 0.399 | 0.362 | 0.266 | 0.343 | 0.41 | 0.326 | 0.368 | 0.283 | 0.515 |
| NCI-H1915 | 0.937 | 0.975 | 1 | 1.01 | 0.981 | 0.797 | 0.749 | 0.767 | 0.752 | 0.801 | 0.435 | 0.445 | 0.46 | 0.451 | 0.453 | 0.361 | 0.38 | 0.365 | 0.358 | 0.379 |
| NCI-H1944 | 0.94 | 0.94 | 1.08 | 1.02 | 1.01 | 1.01 | 0.995 | 1.02 | 1.08 | 1.1 | 0.235 | 0.258 | 0.225 | 0.272 | 0.255 | 0.216 | 0.198 | 0.244 | 0.202 | 0.217 |
| NCI-H1975 | 0.916 | 0.966 | 1.03 | 0.976 | 0.947 | 1.07 | 1.01 | 1.09 | 1 | 1.2 | 0.72 | 0.754 | 0.763 | 0.689 | 0.685 | 0.427 | 0.415 | 0.411 | 0.409 | 0.423 |
| NCI-H1993 | 1.21 | 0.863 | 1 | 0.988 | 1.07 | 1.07 | 0.963 | 0.965 | 1.02 | 0.934 | 0.58 | 0.546 | 0.601 | 0.636 | 0.582 | 0.483 | 0.516 | 0.496 | 0.499 | 0.505 |
| NCI-H2009 | 0.881 | 1.01 | 1.02 | 1.03 | 1.12 | 1.14 | 1.15 | 1.2 | 1.19 | 1.19 | 0.698 | 0.761 | 0.782 | 0.683 | 0.886 | 0.456 | 0.493 | 0.47 | 0.408 | 0.562 |
| NCI-H2023 | 0.94 | 0.969 | 1.11 | 1 | 0.926 | 0.996 | 1.03 | 1.04 | 0.945 | 0.929 | 0.324 | 0.334 | 0.384 | 0.261 | 0.313 | 0.38 | 0.416 | 0.457 | 0.38 | 0.398 |
| NCI-H2085 | 1 | 1.01 | 1.03 | 1.02 | 0.985 | 1.05 | 1.09 | 1.08 | 1.07 | 1.1 | 0.83 | 0.871 | 0.851 | 0.824 | 0.84 | 0.69 | 0.846 | 0.732 | 0.771 | 0.717 |
| NCI-H2087 | 0.981 | 0.982 | 1.05 | 1.18 | 1.05 | 1.07 | 0.941 | 1.01 | 1.07 | 0.981 | 0.196 | 0.271 | 0.308 | 0.209 | 0.286 | 0.415 | 0.437 | 0.516 | 0.53 | 0.467 |
| NCI-H2126 | 1.01 | 0.966 | 1.01 | 0.983 | 1.05 | 0.857 | 0.886 | 0.874 | 0.81 | 0.873 | 0.833 | 0.807 | 0.951 | 0.794 | 0.833 | 0.524 | 0.504 | 0.582 | 0.536 | 0.581 |
| NCI-H2170 | 0.868 | 1.01 | 1.04 | 0.982 | 0.946 | 0.58 | 0.63 | 0.756 | 0.531 | 0.612 | 0.658 | 0.856 | 0.733 | 0.787 | 0.787 | 0.357 | 0.43 | 0.448 | 0.338 | 0.452 |
| NCI-H2228 | 0.832 | 1.17 | 1.16 | 0.966 | 0.962 | 0.897 | 1.16 | 0.833 | 0.908 | 0.885 | 0.249 | 0.281 | 0.207 | 0.216 | 0.265 | 0.288 | 0.419 | 0.285 | 0.432 | 0.285 |
| NCI-H2347 | 1.04 | 1.02 | 1.06 | 1.08 | 1.04 | 0.892 | 0.812 | 0.86 | 0.707 | 0.932 | 0.523 | 0.478 | 0.503 | 0.619 | 0.62 | 0.294 | 0.381 | 0.378 | 0.43 | 0.376 |
| NCI-H2405 | 0.96 | 0.969 | 1.06 | 1.03 | 1.16 | 0.897 | 0.836 | 0.86 | 0.807 | 1.32 | 0.732 | 0.722 | 0.782 | 0.705 | 0.883 | 0.389 | 0.345 | 0.448 | 0.331 | 0.446 |
| NCI-H3122 | 0.947 | 0.963 | 0.955 | 0.966 | 0.999 | 1.05 | 1.03 | 0.954 | 1.02 | 1.07 | 0.37 | 0.368 | 0.488 | 0.406 | 0.415 | 0.34 | 0.362 | 0.414 | 0.33 | 0.385 |
| PC-3 [JPC-3] | 1.1 | 0.962 | 1.04 | 1.07 | 1.08 | 0.834 | 0.841 | 0.861 | 0.802 | 0.777 | 0.838 | 0.884 | 0.892 | 0.889 | 0.83 | 0.486 | 0.494 | 0.467 | 0.474 | 0.474 |
| PC-14 | 1 | 1.01 | 1.03 | 1.03 | 1.04 | 0.998 | 1.08 | 1 | 0.988 | 0.939 | 0.542 | 0.649 | 0.684 | 0.644 | 0.643 | 0.657 | 0.563 | 0.553 | 0.542 | 0.765 |
| RERF-LC-KJ | 0.964 | 1.01 | 1.07 | 0.95 | 0.954 | 0.794 | 1.06 | 1.1 | 1.15 | 1.09 | 0.556 | 0.369 | 0.516 | 0.518 | 0.511 | 0.412 | 0.417 | 0.447 | 0.42 | 0.384 |
| SK-LU-1 | 0.991 | 1.09 | 1.08 | 1.08 | 1.11 | 0.787 | 1.09 | 0.835 | 0.748 | 0.925 | 0.305 | 0.375 | 0.33 | 0.325 | 0.409 | 0.515 | 0.525 | 0.594 | 0.595 | 0.528 |
| SK-MES-1 | 0.988 | 1.01 | 1.06 | 1.01 | 1.03 | 1.24 | 1.21 | 1.16 | 1.31 | 1.27 | 0.861 | 0.934 | 0.893 | 0.835 | 0.983 | 0.662 | 0.7 | 0.69 | 0.634 | 0.667 |
| SW 1573 | 1.05 | 0.992 | 1.01 | 0.947 | 1.07 | 1.03 | 0.934 | 1.02 | 0.97 | 1 | 0.183 | 0.175 | 0.163 | 0.144 | 0.164 | 0.355 | 0.413 | 0.473 | 0.282 | 0.359 |
| UMC-11 | 0.959 | 0.941 | 0.992 | 0.981 | 0.939 | 0.364 | 0.308 | 0.373 | 0.297 | 0.318 | 0.213 | 0.201 | 0.203 | 0.199 | 0.22 | 0.315 | 0.327 | 0.347 | 0.323 | 0.344 |
